Experimental data from patent US7294501B2, “Geldanamycin-producing strains, uses thereof and methods of producing same” (priority 2003, dated 2007).

Test system: acidiscabies and caviscabies
Experiment: Geldanamycin activity against other common scab causing species
Assay type: cell-based
Conditions: data not shown

**Q.** Which “activity against other common scab causing bacterial species” value does the source give for `COC1=C2C[C@@H](C)C[C@H](OC)[C@H](O)[C@@H](C)/C=C(\C)[C@H](OC(N)=O)[C@@H](OC)/C=C\C=C(/C)C(=O)NC(=CC1=O)C2=O` [Geldanamycin] here?
**A.** active
